ChEMBL document CHEMBL3272039, “Potenial antitumor agents. 28. Deoxyribonucleic acid polyintercalating agents” (J Med Chem, 1978)

How the values were obtained:
[1] = Lipophilic-hydrophilic balance, Rm of the compound by reversed-phase chromatographic analysis; format: physicochemical
P388 = experiment: Antitumor activity against mouse P388 cells allografted in ip dosed BDF1 mouse at optimum dose administered qd for 5 days relative to control; format: functional
Bos taurus = organism: Bos taurus; experiment: Displacement of ethidium bromide from calf thymus DNA by spectrofluorometric analysis
[2] = (§1) Toxicity in ip dosed BDF1 mouse allografted with mouse P388 cells administered qd for 5 days; format: organism-based; settings: BDF1, mouse, in vivo
Mus musculus [3] = experiment: as §1; format: organism-based; settings: mouse, in vivo, 120 h
Mus musculus [4] = experiment: Toxicity in ip dosed BDF1 mouse allografted with mouse L1210 cells administered qd for 5 days; format: organism-based; settings: mouse, in vivo, 120 h
L1210 = experiment: Antitumor activity against mouse L1210 cells allografted in ip dosed BDF1 mouse at optimum dose administered qd for 5 days relative to control; format: functional

Structure (SMILES) | Rm [1] | ILS (P388) | C50 (Bos taurus) | MTD at 120 h [2] | Activity (Mus musculus [3]) | Activity (Mus musculus [4]) | ILS (L1210)
Cl.c1ccc(OCCCCCCCOc2ccccc2Nc2c3ccccc3nc3ccccc23)c(Nc2c3ccccc3nc3ccccc23)c1 | 0.75 | >25% | 3.8 µM | > 500 mg/kg/day |  |  | 
Cl.c1ccc(OCCCCCCCCCOc2ccccc2Nc2c3ccccc3nc3ccccc23)c(Nc2c3ccccc3nc3ccccc23)c1 | 0.85 | >25% | 3.3 µM | > 500 mg/kg/day |  |  | 
c1ccc2c(NCCCCCNc3c4ccccc4nc4ccccc34)c3ccccc3nc2c1 | -0.06 | 36% | 0.21 µM |  | 7.5 mg/kg/day |  | 
Cl.O.O=S(=O)(CCCCCS(=O)(=O)Nc1ccc(Nc2c3ccccc3nc3ccccc23)cc1)Nc1ccc(Nc2c3ccccc3nc3ccccc23)cc1 | -0.02 | 49% | 0.07 µM |  | 210 mg/kg/day | 210 mg/kg/day | 28%
CCN(CC)CCCC(C)Nc1ccnc2cc(Cl)ccc12.Cl (stereo not given) |  | >25% | 11 µM | 40 mg/kg/day |  |  | 
c1ccc2c(NCCNc3c4ccccc4nc4ccccc34)c3ccccc3nc2c1 | -0.44 | >25% | 0.7 µM | 5 mg/kg/day |  |  | 
c1ccc2c(NCCCCCCCCCCCCNc3c4ccccc4nc4ccccc34)c3ccccc3nc2c1 | 0.79 | >25% | 0.11 µM | 5 mg/kg/day |  |  | 
Cl.c1ccc(OCCCCCCCCCCOc2ccccc2Nc2c3ccccc3nc3ccccc23)c(Nc2c3ccccc3nc3ccccc23)c1 | 0.92 | >25% | 8 µM | > 500 mg/kg/day |  |  | 
c1ccc2c(NCCCCCCCCNc3c4ccccc4nc4ccccc34)c3ccccc3nc2c1 | 0.44 | 55% | 0.11 µM |  | 2.5 mg/kg/day |  | 
c1ccc2c(NCCCCCCCNc3c4ccccc4nc4ccccc34)c3ccccc3nc2c1 | 0.27 | 67% | 0.1 µM |  | 5 mg/kg/day |  | 
COc1cc(NS(=O)(=O)CCCS(=O)(=O)Nc2ccc(Nc3c4ccccc4nc4ccccc34)c(OC)c2)ccc1Nc1c2ccccc2nc2ccccc12.CS(=O)(=O)O.O | 0.22 |  |  |  | 50 mg/kg/day | 50 mg/kg/day | 
O.c1ccc(OCCCNc2ccnc3ccccc23)c(Nc2c3ccccc3nc3ccccc23)c1 | -0.19 | >25% | 2.7 µM | 50 mg/kg/day |  |  | 
Cl.O.c1ccc(OCCCCCNc2ccnc3ccccc23)c(Nc2c3ccccc3nc3ccccc23)c1 | 0.23 | >25% | 1.9 µM | 17 mg/kg/day |  |  | 
Br.O=S(=O)(CCCNc1ccnc2ccccc12)Nc1ccc(Nc2c3ccccc3nc3ccccc23)cc1 | -0.45 | >25% | 0.12 µM | 375 mg/kg/day |  |  | 
CS(=O)(=O)Nc1ccc(Nc2c3ccccc3nc3ccccc23)c(OCCCCOc2cc(NS(C)(=O)=O)ccc2Nc2c3ccccc3nc3ccccc23)c1.Cl | 0.01 | >25% | 0.22 µM | > 500 mg/kg/day |  |  | 
Cl.c1ccc(OCCCCCCCCOc2ccccc2Nc2c3ccccc3nc3ccccc23)c(Nc2c3ccccc3nc3ccccc23)c1 | 0.82 | >25% | 9 µM | > 500 mg/kg/day |  |  | 
Cl.O.c1ccc(OCCCCCCNc2ccnc3ccccc23)c(Nc2c3ccccc3nc3ccccc23)c1 | 0.42 | >25% | 0.99 µM | 15 mg/kg/day |  |  | 
Cl.O.c1ccc(OCCCCCCCNc2ccnc3ccccc23)c(Nc2c3ccccc3nc3ccccc23)c1 | 0.52 | >25% | 0.71 µM | 25 mg/kg/day |  |  | 
Cl.Nc1c2ccccc2nc2ccccc12 [AMINACRINE HYDROCHLORIDE] | -0.08 | >25% | 8.1 µM | 12.5 mg/kg/day |  |  | 

Structure (SMILES) | Rm [1] | ILS (P388) | C50 (Bos taurus) | MTD at 120 h [2] | Activity (Mus musculus [3]) | Activity (Mus musculus [4]) | ILS (L1210)
Cl.c1ccc(OCCCCOc2ccccc2Nc2c3ccccc3nc3ccccc23)c(Nc2c3ccccc3nc3ccccc23)c1 | 0.53 | >25% | 0.8 µM | > 500 mg/kg/day |  |  | 
COc1cc(NS(=O)(=O)CCCCS(=O)(=O)Nc2ccc(Nc3c4ccccc4nc4c(C(N)=O)cccc34)c(OC)c2)ccc1Nc1c2ccccc2nc2c(C(N)=O)cccc12.Cl.O | -0.64 | >25% | 0.068 µM | 11 mg/kg/day |  |  | 
Cl.O=S(=O)(CCCCCCNc1c2ccccc2nc2ccccc12)Nc1ccc(Nc2c3ccccc3nc3ccccc23)cc1 | 0.08 | >25% | 0.21 µM | 150 mg/kg/day |  |  | 
Cl.c1ccc(OCCCCCCOc2ccccc2Nc2c3ccccc3nc3ccccc23)c(Nc2c3ccccc3nc3ccccc23)c1 | 0.71 | >25% | 2.1 µM | > 500 mg/kg/day |  |  | 
CCN(CC)CCCC(C)Nc1c2ccc(Cl)cc2nc2ccc(OC)cc12.CS(C)(=O)=O (stereo not given) |  | >25% | 0.51 µM | 90 mg/kg/day |  |  | 
Cl.c1ccc(OCCCCCCCCNc2ccnc3ccccc23)c(Nc2c3ccccc3nc3ccccc23)c1 | 0.59 | >25% | 0.6 µM | 31 mg/kg/day |  |  | 
CS(=O)(=O)Nc1ccc(Nc2c3ccccc3nc3c(C(N)=O)cccc23)c(OCCCCOc2cc(NS(C)(=O)=O)ccc2Nc2c3ccccc3nc3c(C(N)=O)cccc23)c1.Cl.O | -0.87 | >25% | 0.72 µM | 275 mg/kg/day |  |  | 
c1ccc2c(NCCCCCCCCCCNc3c4ccccc4nc4ccccc34)c3ccccc3nc2c1 | 0.65 | 33% | 0.09 µM |  | 2.5 mg/kg/day |  | 
Cl.O.c1ccc(OCCCCNc2ccnc3ccccc23)c(Nc2c3ccccc3nc3ccccc23)c1 | -0.07 | >25% | 2.6 µM | 20 mg/kg/day |  |  | 
Cl.c1ccc(OCCCCCOc2ccccc2Nc2c3ccccc3nc3ccccc23)c(Nc2c3ccccc3nc3ccccc23)c1 | 0.6 | >25% | 1.4 µM | > 500 mg/kg/day |  |  | 
c1ccc2c(NCCCCCCCCCCCCCCCCNc3c4ccccc4nc4ccccc34)c3ccccc3nc2c1 | 0.88 | >25% | 0.23 µM |  |  |  | 
Cl.O.c1ccc(OCCOc2ccccc2Nc2c3ccccc3nc3ccccc23)c(Nc2c3ccccc3nc3ccccc23)c1 | 0.17 | >25% | 0.4 µM | 125 mg/kg/day |  |  | 
Cl.O=S(=O)(CCCCS(=O)(=O)Nc1ccc(Nc2c3ccccc3nc3ccccc23)cc1)Nc1ccc(Nc2c3ccccc3nc3ccccc23)cc1 | -0.11 | >25% | 0.053 µM | > 500 mg/kg/day |  |  | 
COc1cc(NS(=O)(=O)CCCCCCS(=O)(=O)Nc2ccc(Nc3c4ccccc4nc4ccccc34)c(OC)c2)ccc1Nc1c2ccccc2nc2ccccc12.Cl.O | 0.42 | >25% | 0.15 µM | 270 mg/kg/day |  |  | 
Cl.c1ccc(OCCCCOc2ccccc2Nc2ccnc3ccccc23)c(Nc2ccnc3ccccc23)c1 | -0.1 | >25% | 9.2 µM | 25 mg/kg/day |  |  | 
c1ccc2c(NCCCCNc3c4ccccc4nc4ccccc34)c3ccccc3nc2c1 | -0.26 | >25% | 0.3 µM | 10 mg/kg/day |  |  | 
c1ccc2c(NCCCCCCNc3c4ccccc4nc4ccccc34)c3ccccc3nc2c1 | 0.13 | 53% | 0.15 µM |  | 2.5 mg/kg/day |  | 
c1ccc2c(NCCCCCCCCCCCCCCNc3c4ccccc4nc4ccccc34)c3ccccc3nc2c1 | 0.82 | >25% | 0.14 µM |  |  |  | 
